Assay results taken from patent US20240226072A1 (Stichting Het Nederlands Kanker Instituut, priority 2022, published 2024).
Where two headings read alike, the source gives them in different places.

Assays:
[1] = input of human simulation, cited from earlier work
[2] = Plasma pharmacokinetics and tissue distribution 2 h after oral cabazitaxel 10 mg/kg with vehicle or 25 mg/kg ritonavir in wild-type, Oatp1a/1b−/−, Oatp1a/1b/2b1−/−, OATP1B1- and OATP1B3-transgenic mice; format: in vivo; conditions: for CLiver / Cbrain / Pbrain, brain accumulation per h / SIC (% of dose), small intestinal content / AUC(0-t) / Kp at 2 h: cabazitaxel 10 mg/kg oral; for CLiver / Cbrain / Pbrain, brain accumulation per h / SIC (% of dose), small intestinal content / Kp at 2 h: 2 h; for enhancement of AUC0-2h by ritonavir: ritonavir 25 mg/kg compared to respective vehicle group; for AUC(0-t) / Kp at 2 h: male, FVB, mouse; for AUC(0-t): plasma, read-out: AUC0-2 h
Procedure: All animals were fasted 2 to 3 hours prior to the start of the experiment to minimize variation in absorption after oral administration. […] Subsequently, cardiac puncture was performed with a heparinized needle and syringe collecting a final blood sample. […] All samples were stored at −30° C. until analysis.
Differences were considered statistically significant when P<0.05. All data are presented as geometric mean±SD.

[3] = OATP1B1-transgenic mice, ritonavir 25 mg/kg oral
[4] = OATP1B1-transgenic mice, vehicle
[5] = OATP1B3-transgenic mice, ritonavir 25 mg/kg oral
[6] = OATP1B3-transgenic mice, vehicle
[7] = Oatp1a/1b/2b1−/− mice, ritonavir 25 mg/kg oral
[8] = Oatp1a/1b−/− mice, ritonavir 25 mg/kg oral

For `CO[C@H]1C(=O)[C@]2(C)[C@@H](OC)C[C@H]3OC[C@@]3(OC(C)=O)[C@H]2[C@H](OC(=O)c2ccccc2)[C@]2(O)C[C@H](OC(=O)[C@H](O)[C@@H](NC(=O)OC(C)(C)C)c3ccccc3)C(C)=C1C2(C)C` [cabazitaxel], the “CLint, Intrinsic clearance” value ([1]; calculated from CL 48.5 and QH 80, sources (17, 18)) is listed as 123.17 L/h, the “IIV CL” value [1] is listed as 38.8 CV% and the “Lag-time on Ka” value ([1]; observed for indinavir PK when co-administered with ritonavir, source (27)) is listed as 0.483 h. The “Ka, First order absorption rate constant” value ([1]; reported for docetaxel, source (26)) was 0.7 h⁻¹, the “IIV K12” value ([1]; source (17)) was 84.0 CV% and the “IIV K13” value ([1]; source (17)) was 64.2 CV%. For the same compound, the “IIV K31” value ([1]; source (17)) was 28.2 CV%, the “IIV VI” value ([1]; source (17)) was 93.4 CV% and the “IOV CL” value ([1]; source (17)) was 19.4 CV%. For the same compound, the “IOV V1” value ([1]; source (17)) was 45.3 CV%, the K12 ([1]; source (17)) was 2.48 h⁻¹ and the K13 ([1]; source (17)) was 4.84 h⁻¹. For the same compound, the K21 ([1]; source (17)) was 0.604 h⁻¹, the K31 ([1]; source (17)) was 0.0266 h⁻¹ and the V1 ([1]; source (17)) was 26 L. For the same compound, the CLiver [2, 3] was 22966 pmol/g, the Cbrain [2, 3] was 275 pmol/g and the “Pbrain, brain accumulation per h” value [2, 3] was 0.031 h⁻¹. The “SIC (% of dose), small intestinal content” value (from here on “SIC (% of dose)”) [2, 3] was 1.93 % of dose, the CLiver [2, 4] was 3150 pmol/g and the Cbrain [2, 4] was 59.0 pmol/g. For the same compound, the “Pbrain, brain accumulation per h” value [2, 4] was 0.014 h⁻¹, the “SIC (% of dose)” value [2, 4] was 1.43 % of dose and the CLiver [2, 5] was 21217 pmol/g. For the same compound, the Cbrain [2, 5] was 245 pmol/g, the “Pbrain, brain accumulation per h” value [2, 5] was 0.032 h⁻¹ and the “SIC (% of dose)” value [2, 5] was 1.06 % of dose. For the same compound, the CLiver [2, 6] was 2777 pmol/g, the Cbrain [2, 6] was 55.8 pmol/g and the “Pbrain, brain accumulation per h” value [2, 6] was 0.014 h⁻¹. The “SIC (% of dose)” value [2, 6] was 1.00 % of dose, the “enhancement of AUC0-2h by ritonavir” value ([2]; Oatp1a/1b/2b1−/− mice) was 2.4 fold and the CLiver [2, 7] was 21464 pmol/g. The Cbrain [2, 7] was 262 pmol/g, the “Pbrain, brain accumulation per h” value [2, 7] was 0.029 h⁻¹ and the “SIC (% of dose)” value [2, 7] was 1.67 % of dose. For the same compound, the CLiver ([2]; Oatp1a/1b/2b1−/− mice, vehicle) was 2979 pmol/g, the Cbrain ([2]; Oatp1a/1b/2b1−/− mice, vehicle) was 49.4 pmol/g and the “Pbrain, brain accumulation per h” value ([2]; Oatp1a/1b/2b1−/− mice, vehicle) was 0.013 h⁻¹. For the same compound, the “SIC (% of dose)” value ([2]; Oatp1a/1b/2b1−/− mice, vehicle) was 2.22 % of dose, the “enhancement of AUC0-2h by ritonavir” value ([2]; Oatp1a/1b−/− mice) was 3.0 fold and the CLiver [2, 8] was 20747 pmol/g. The Cbrain [2, 8] was 323 pmol/g, the “Pbrain, brain accumulation per h” value [2, 8] was 0.035 h⁻¹ and the “SIC (% of dose)” value [2, 8] was 0.91 % of dose. The CLiver ([2]; Oatp1a/1b−/− mice, vehicle) was 2758 pmol/g, the Cbrain ([2]; Oatp1a/1b−/− mice, vehicle) was 45.2 pmol/g and the “Pbrain, brain accumulation per h” value ([2]; Oatp1a/1b−/− mice, vehicle) was 0.014 h⁻¹. The “SIC (% of dose)” value ([2]; Oatp1a/1b−/− mice, vehicle) was 0.32 % of dose, the AUC(0-t) ([2]; OATP1B1-transgenic (Oatp1a/1b−/− background), po, 10 mg/kg, OATP1B1-transgenic mice, ritonavir 25 mg/kg oral) was 7.91 µM·h and the AUC(0-t) ([2]; OATP1B1-transgenic (Oatp1a/1b−/− background), po, 10 mg/kg, OATP1B1-transgenic mice, vehicle) was 3.7 µM·h. The AUC(0-t) ([2]; OATP1B3-transgenic (Oatp1a/1b−/− background), po, 10 mg/kg, OATP1B3-transgenic mice, ritonavir 25 mg/kg oral) was 6.57 µM·h, the AUC(0-t) ([2]; OATP1B3-transgenic (Oatp1a/1b−/− background), po, 10 mg/kg, OATP1B3-transgenic mice, vehicle) was 3.51 µM·h and the AUC(0-t) ([2]; Oatp1a/1b/2b1−/−, po, 10 mg/kg, Oatp1a/1b/2b1−/− mice, ritonavir 25 mg/kg oral) was 6.8 µM·h. The AUC(0-t) ([2]; Oatp1a/1b/2b1−/−, po, 10 mg/kg, Oatp1a/1b/2b1−/− mice, vehicle) was 2.88 µM·h, the AUC(0-t) ([2]; Oatp1a/1b−/−, po, 10 mg/kg, Oatp1a/1b−/− mice, ritonavir 25 mg/kg oral) was 7.89 µM·h and the AUC(0-t) ([2]; Oatp1a/1b−/−, po, 10 mg/kg, Oatp1a/1b−/− mice, vehicle) was 2.62 µM·h. For the same compound, the Kp at 2 h ([2]; brain/plasma, po, 10 mg/kg, OATP1B1-transgenic mice, vehicle, read-out: Brain-to-plasma ratio) was 0.054, the Kp at 2 h ([2]; brain/plasma, po, 10 mg/kg, OATP1B3-transgenic mice, vehicle, read-out: Brain-to-plasma ratio) was 0.067 and the Kp at 2 h ([2]; brain/plasma, po, 10 mg/kg, Oatp1a/1b/2b1−/− mice, vehicle, read-out: Brain-to-plasma ratio) was 0.064. It also gave a Kp at 2 h ([2]; brain/plasma, po, 10 mg/kg, Oatp1a/1b−/− mice, vehicle, read-out: Brain-to-plasma ratio) of 0.064, a Kp at 2 h ([2]; brain/plasma, po, 10 mg/kg, wild-type mice, vehicle, read-out: Brain-to-plasma ratio) of 0.069 and a Kp at 2 h ([2]; brain/plasma, po, OATP1B1-transgenic mice, ritonavir 25 mg/kg oral, read-out: Brain-to-plasma ratio) of 0.045. It also gave a Kp at 2 h ([2]; brain/plasma, po, OATP1B3-transgenic mice, ritonavir 25 mg/kg oral, read-out: Brain-to-plasma ratio) of 0.046, a Kp at 2 h ([2]; brain/plasma, po, Oatp1a/1b/2b1−/− mice, ritonavir 25 mg/kg oral, read-out: Brain-to-plasma ratio) of 0.047 and a Kp at 2 h ([2]; brain/plasma, po, Oatp1a/1b−/− mice, ritonavir 25 mg/kg oral, read-out: Brain-to-plasma ratio) of 0.055. The Kp at 2 h ([2]; brain/plasma, po, wild-type mice, ritonavir 25 mg/kg oral, read-out: Brain-to-plasma ratio) was 0.036, the Kp at 2 h ([2]; liver, oral, 10 mg/kg, OATP1B1-transgenic mice, vehicle, read-out: Liver-to-plasma ratio) was 3.1 and the Kp at 2 h ([2]; liver, oral, 10 mg/kg, OATP1B3-transgenic mice, vehicle, read-out: Liver-to-plasma ratio) was 3.61.
